The record followed here is patent US10292992B2, “Selective high-affinity polydentate ligands and methods of making such” (LAWRENCE LIVERMORE NATIONAL SECURITY, LLC, priority 2008, dated 2019).

Entries after “also recorded” stand apart in the source; their conditions may differ.

One experiment has as its system HLA-DR10 protein. The experiment is described as follows: Surface plasmon resonance binding of SHALs to isolated HLA-DR10 protein. Details: species or system human. The text has this: In certain embodiments, the binding affinities of the best SHALs can be estimated by mass spectrometry of the SHAL-target complexes, followed by a more accurate surface plasmon resonance (SPR) spectroscopy (Shuck (1997) Annu Rev Biophys Biomol Struct., 26: 541-566; Van Regenmortal (2001) Cell Mol Life Sci., 58: 794-800) measurement of the SHAL-target binding affinity using for example, the IASYS Plus or BiaCore instruments. In order to perform the SPR measurement, biotin can be added to the linker through a third functional group (as described above) and the SHAL can be bound to commercially available streptavidin coated chips. […] Experiments can be performed to test the selectivity of SHAL binding to targets in the presence of molecules related to the targets. Thus, for example, where the SHAL is directed to HLA-DR10, the SHAL can be evaluated for its ability to bind target molecules in the presence of Raji cell surface proteins extracted and separated by affinity chromatography. After treating the gel with the biotinylated SHAL and rinsing out excess unbound SHAL, the location of the bound SHAL can be detected by staining with Rhodamine tagged streptavidin.
Protein binding experiments were conducted using surface plasma resonance on a Biacore 3000 (Biacore, Piscataway, N.J.) at 25° C. A research grade streptavidin immobilized chip (SA chip, Biacore) was preconditioned and normalized according to the manufacturers instructions. Biotin labeled SHALs were dissolved in DMSO and diluted in 1.05×PBS (Biacore) to a final concentration of 1×PBS pH 7.4, 5% DMSO, to match the running buffer. These SHALs were injected over the flow cell to yield a surface density of 500-1000RU (response units). Biotin (50 μM E-Z Link Amine-PEO2-Biotin, Pierce) was injected over all cells for 1 minute at 20 μl/min as a block to reduce non-specific binding. One flow cell was used as a reference cell and a different SHAL was immobilized on each of the three other cells.
Experiments measuring the binding of HLA-DR10 to the SHALs were carried out at a flow rate of 30 μl/minute in PBS pH7.4 running buffer using all 4 flow cells. HLA-DR10 isolated from Raji cells (Rose et al. (1996) Cancer Immunol Immunother 43:26-30) was diluted in running buffer to a final concentration ranging from […] and a series of concentrations were run randomly in triplicate. Protein was injected for 3 minutes, allowed to dissociate for 5 minutes followed by regeneration of the surface using a 1 minute injection of 0.1% sodium dodecylsulfate (SDS) followed by a washing step with a 2 minute injection of running buffer. The data, which were double referenced by subtracting the blank reference surface and an average of 5 blank injections, were processed using the program SCRUBBER (University of Utah).
Using homology modeling, HLA-DR amino acid residues critical for Lym-1 binding were mapped on a 3-D model of the HLA-DR10ß subunit (Balhorn et al, (2007) Clin. Cancer Res., 13(Suppl. 18): S5621-S5628). Cavities within the Lym-1 epitopic surface of the protein were identified using SPHGEN (Kuntz et al. (1982) J. Mol Biol. 161: 269-288; Desjarlais et al. (1988) J. Med. Chem., 31: 722-729). After computational ligand docking for each of the cavities, a combination of NMR spectroscopy, surface plasmon resonance (BIAcore 3000; Biacore, Piscataway, N.J.) and competitive binding experiments were used to confirm ligand binding to HLA-DR10 protein. […]
Background: SPR reads the build-up and loss of mass on a sensor chip optically.

In experiment [1] the test system is Raji cells expressing HLA-DR10. The experiment is described as follows: Whole cell binding assay with 111In-labeled SHAL. Format: cell-based, human. The following applies: for SHAL bound by Raji cells relative to parent SHAL: unwashed. As to the method:
Raji human Burkitt's lymphoma B-cells (American Type Culture Collection, Manassas, Va.) were maintained in RPMI-1640 media supplemented with 10% fetal bovine serum, 2mM L-glutamine, 1 mM sodium pyruvate, 1% of a solution of nonessential amino acids (GIBCO #11140-050), and 100 units/ml of Penicillin G, 100 μg/ml Streptomycin, and 0.25 μg/ml of Amphotericin B at 37° C. in a humidified 5% CO2 atmosphere. Jurkat's cells (American Type Culture Collection, Manassas, Va.), an acute leukemia T-cell line, were maintained in the same medium with the addition of 10 mM 4-(2-hydroxyethyl)-1-piperazineethanesulfonic acid (HEPES).
A series of experiments were conducted to quantify the uptake of the ^111In-labeled parent SHAL (DvLPBaPPP)2LLDo and its hexa-arginine analog (DvLPBaPPP)2LArg6AcLLDo by Raji cells, a cell line that has been previously shown to express the HLA-DR10 variant. The assays were conducted using aliquots containing 10^6 cells suspended in 150 μl of PBS with 5% bovine serum albumin (BSA). Aliquots of cells were treated with 0.1, 1, 5, 10 or 25 ng of ^111In-labeled (DvLPBaPPP)2LLDo or (DvLPBaPPP)2LArg6AcLLDo for one hour at both 4° C. and 22° C. The tubes containing the treated cells were centrifuged to separate the cell pellet from the supernatant and the two fractions were counted in a calibrated gamma well counter to determine the amount of bound and free SHAL. Half of the cell pellets were washed twice with PBS and incubated at 22° C. for 15 min before centrifuging them again. The pooled washes and washed cell pellets were subsequently counted in the gamma well counter to assess how much of the bound SHAL could be removed by washing.
In vitro cell binding experiments were conducted using ^111In-labeled parent SHAL and the hexa-arginine SHAL analog to quantify SHAL uptake and to evaluate the effect of adding the hexa-arginine tag. Uptake was assessed using Raji cells, a lymphoma cell line expressing HLA-DR10. Aliquots containing 10^6 cells were incubated with increasing amounts of SHAL containing ^111In labeled SHAL as a tracer, and cell-associated ^111In was measured before and after washing the cell pellets.

Consider `CC(=O)NC(CCCNC(=N)N)C(=O)NC(CCCNC(=N)N)C(=O)NC(CCCNC(=N)N)C(=O)NC(CCCNC(=N)N)C(=O)NC(CCCNC(=N)N)C(=O)NC(CCCNC(=N)N)C(=O)NCCCCC(NC(=O)C(CCCCNC(=O)COCCOCCNC(=O)COCCOCCNC(=O)COCCOCCNC(=O)C(CCCCNC(=O)COCCOCCNC(=O)c1ccc(NC(=O)C(CCCNC(=N)N)NC(=O)c2ccccc2)cc1)NC(=O)C(NS(=O)(=O)c1ccc(N=Nc2ccc(N(C)C)cc2)cc1)C(C)C)NC(=O)COCCOCCNC(=O)COCCOCCNC(=O)COCCOCCNC(=O)C(CCCCNC(=O)COCCOCCNC(=O)c1ccc(NC(=O)C(CCCNC(=N)N)NC(=O)c2ccccc2)cc1)NC(=O)C(NS(=O)(=O)c1ccc(N=Nc2ccc(N(C)C)cc2)cc1)C(C)C)C(=O)NC(CCCCNC(=O)CN1CCN(CC(=O)O)CCN(CC(=O)O)CCN(CC(=O)O)CC1)C(=O)O` (stereo not drawn) [(DvLPBaPPP)2LArg6AcLLDo], for which the “binding to isolated HLA-DR10 (in words)” value with HLA-DR10 protein is “did not interfere with SHAL binding to the protein”. On HLA-DR10 protein (biotinylated versions of the SHALs immobilized on streptavidin chip, HLA-DR10 isolated from Raji cells), the dissociation constant (Kd) is approximately 34 nM. For the same molecule, the “pmoles SHAL Bound/10^6 cells unwashed” value in experiment [1] (5.3 pmoles of 111In-labeled SHAL, unwashed cell pellets) was 1.300 ± 0.038 pmoles SHAL Bound/10^6 cells. In experiment [1] (5.3 pmoles of 111In-labeled SHAL, washed two times with BSA/buffer), the “pmoles SHAL Bound/10^6 cells Washed” value was 0.876 ± 0.017 pmoles SHAL Bound/10^6 cells. In experiment [1] (111In-labeled, after washing, listed as hexa-arginine SHAL), the “SHAL remaining associated with Raji cells after washing relative to parent SHAL” value is listed as “Three fold more; also recorded: three times”. Further, the “SHAL bound by Raji cells relative to parent SHAL” value is “twice as much” in experiment [1] (111In-labeled, listed as hexa-arginine SHAL) and “two fold more” in experiment [1] (111In-labeled, listed as hexa-arginine SHAL analog). Also, in experiment [1] (Raji cells, after washing), the “proportion of SHAL retained by the cells after washing” value stood at 67%. The “Percent SHAL Retained” value in experiment [1] (after washing two times) was 67%. Also, in experiment [1] (highest concentration tested), the “amount of residualized SHAL” value is given as ~1.1×10^6 SHAL molecules per cell.
Regarding `CC(C)C(NS(=O)(=O)c1ccc(N=Nc2ccc(N(C)C)cc2)cc1)C(=O)NCCOCCOCC(=O)NC(CCCCNC(=O)C(CCCCNC(=O)CC(=O)Nc1ccccc1Oc1ncc(C(F)(F)F)cc1Cl)NC(=O)COCCOCCNC(=O)c1ccc(N2CCN(Cc3ccc(Cl)cc3)CC2)c([N+](=O)[O-])c1)C(=O)NCCOCCOCC(=O)NC(CCCCNC(=O)CN1CCN(CC(=O)O)CCN(CC(=O)O)CCN(CC(=O)O)CC1)C(=O)O` (stereo not drawn) [tridentate SHAL], the “binding to isolated HLA-DR10 (in words)” value in the experiment on HLA-DR10 protein is on record as “better than nanomolar”. The “SHAL binding to HLA-DR10 on Lym-1 addition” value in the experiment with HLA-DR10 protein (isolated or recombinant HLA-DR10 protein) is “blocked by Lym-1 addition”.

By Kd is commonly meant the concentration at which binding is half-saturated.
